Laboratory results published in ChEMBL document CHEMBL5365430, “Structure-Activity Relationship of Truncated 2,8-Disubstituted-Adenosine Derivatives as Dual A2A/A3 Adenosine Receptor Antagonists and Their Cancer Immunotherapeutic Activity” (J Med Chem, 2023).

Experiments:
Assay type in all cases: cell membranes
Adenosine receptor A2b = biological target: T1, Adenosine receptor A2b (Homo sapiens, UniProt P29275); experiment: Displacement of DPCPX from recombinant human A2BAR expressed in HEK293 cell membrane assessed as inhibition constant incubated for 30 mins by beta scintillation counter analysis
T1 sequence (P29275 whole entry): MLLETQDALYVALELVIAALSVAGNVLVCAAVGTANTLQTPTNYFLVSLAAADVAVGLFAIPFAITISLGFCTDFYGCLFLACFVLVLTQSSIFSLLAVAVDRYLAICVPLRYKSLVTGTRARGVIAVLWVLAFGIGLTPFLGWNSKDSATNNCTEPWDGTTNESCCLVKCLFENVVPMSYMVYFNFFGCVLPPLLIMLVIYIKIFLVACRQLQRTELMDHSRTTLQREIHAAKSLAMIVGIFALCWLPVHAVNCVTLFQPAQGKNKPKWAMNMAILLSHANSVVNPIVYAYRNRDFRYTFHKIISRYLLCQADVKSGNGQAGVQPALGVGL

Adenosine receptor A2a = Adenosine receptor A2a (Homo sapiens, UniProt P29274); experiment: Displacement of […] from recombinant human A2AAR expressed in HEK293 cell membrane assessed as inhibition constant incubated for 60 mins by liquid scintillation counter analysis
Adenosine receptor A3 = biological target: T2, Adenosine receptor A3 (Homo sapiens, UniProt P0DMS8); experiment: Displacement of I-AB-MEC from human A3AR expressed in CHO cell membrane assessed as inhibition constant incubated for 60 mins by gamma counter analysis
T2 sequence (P0DMS8 whole entry): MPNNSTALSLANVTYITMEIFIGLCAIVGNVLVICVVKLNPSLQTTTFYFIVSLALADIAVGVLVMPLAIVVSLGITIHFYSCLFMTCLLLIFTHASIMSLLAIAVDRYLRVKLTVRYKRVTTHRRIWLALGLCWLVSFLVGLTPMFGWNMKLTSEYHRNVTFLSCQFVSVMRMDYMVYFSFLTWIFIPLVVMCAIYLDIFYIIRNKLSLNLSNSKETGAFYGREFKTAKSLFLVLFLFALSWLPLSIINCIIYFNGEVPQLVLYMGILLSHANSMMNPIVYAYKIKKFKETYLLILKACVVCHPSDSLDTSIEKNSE

Adenosine receptor A1 = biological target: T3, Adenosine receptor A1 (Homo sapiens, UniProt P30542); experiment: Displacement of R-PIA from human A1AR expressed in CHO cell membrane assessed as inhibition constant incubated for 60 mins by liquid scintillation counter analysis
T3 sequence (P30542 whole entry): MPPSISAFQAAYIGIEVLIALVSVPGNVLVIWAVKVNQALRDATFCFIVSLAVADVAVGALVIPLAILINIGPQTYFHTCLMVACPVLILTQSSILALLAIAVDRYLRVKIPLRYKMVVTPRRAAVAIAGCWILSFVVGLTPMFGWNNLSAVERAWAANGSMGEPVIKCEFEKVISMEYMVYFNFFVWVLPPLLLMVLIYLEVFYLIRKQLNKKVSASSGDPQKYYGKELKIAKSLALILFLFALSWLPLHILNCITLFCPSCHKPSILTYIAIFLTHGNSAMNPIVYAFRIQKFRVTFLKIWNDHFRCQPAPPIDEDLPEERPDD

[1] = biological target: T4, Adenosine receptor A2b (Homo sapiens) (UniProt P29275); experiment: Displacement of DPCPX from recombinant human A2BAR expressed in HEK293 cell membrane at 10 uM incubated for 30 mins by beta scintillation counter analysis relative to control
T4 sequence (whole entry): T1 sequence (P29275 whole entry)

Adenosine receptor A2a, sequence (P29274 whole entry): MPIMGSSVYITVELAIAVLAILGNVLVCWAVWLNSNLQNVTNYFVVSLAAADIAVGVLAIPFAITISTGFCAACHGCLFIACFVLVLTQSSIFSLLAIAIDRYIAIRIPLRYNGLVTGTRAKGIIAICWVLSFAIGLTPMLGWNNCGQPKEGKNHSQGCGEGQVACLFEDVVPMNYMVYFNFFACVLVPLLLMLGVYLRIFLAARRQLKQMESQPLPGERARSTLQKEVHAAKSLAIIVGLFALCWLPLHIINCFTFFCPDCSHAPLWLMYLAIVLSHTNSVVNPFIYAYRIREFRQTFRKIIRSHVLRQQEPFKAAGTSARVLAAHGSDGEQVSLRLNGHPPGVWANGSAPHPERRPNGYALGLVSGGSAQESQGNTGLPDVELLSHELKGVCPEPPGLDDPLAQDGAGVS

Row | Compound | Ki (Adenosine receptor A2b) [nM] | Ki (Adenosine receptor A2a) [nM] | Ki (Adenosine receptor A3) [nM] | Ki (Adenosine receptor A1) [nM] | Activity [1] [%]
1 | CNc1nc(NCCc2ccc(O)cc2)nc2c1nc(-c1ccco1)n2[C@@H]1SC[C@@H](O)[C@H]1O | 713 | 468 | 445 | 5330 | –
2 | CCCCC#Cc1nc(N)c2nc(-c3cccs3)n([C@@H]3SC[C@@H](O)[C@H]3O)c2n1 | – | – | – | – | 27
3 | Nc1nc(NCCc2ccc(O)cc2)nc2c1nc(-c1cccs1)n2[C@@H]1SC[C@@H](O)[C@H]1O | 608 | 946 | 3010 | 8050 | –
4 | CCCCC#Cc1nc(NC)c2nc(-c3cccs3)n([C@@H]3SC[C@@H](O)[C@H]3O)c2n1 | – | – | – | – | 11
5 | CCCCC#Cc1nc(NC)c2nc(-c3cccs3)n([C@@H]3OC[C@@H](O)[C@H]3O)c2n1 | – | 126 | 2.9 | 2310 | 52
6 | Nc1nc(NCCc2ccc(O)cc2)nc2c1nc(-c1ccco1)n2[C@@H]1SC[C@@H](O)[C@H]1O | 227 | 112 | 1650 | – | –
7 | CCCCC#Cc1nc(NCc2cccc(I)c2)c2nc(-c3ccco3)n([C@@H]3SC[C@@H](O)[C@H]3O)c2n1 | – | – | – | – | 3
8 | CNc1nc(NCCc2ccc(O)cc2)nc2c1nc(-c1cccs1)n2[C@@H]1SC[C@@H](O)[C@H]1O | 579 | 917 | 106 | – | –
9 | CNc1nc(Cl)nc2c1nc(-c1ccco1)n2[C@@H]1SC[C@@H](O)[C@H]1O | – | 752 | 94.6 | – | 46
10 | CCCCC#Cc1nc(NC)c2nc(-c3ccco3)n([C@@H]3SC[C@@H](O)[C@H]3O)c2n1 | – | – | – | – | 41
